Experiments:
3T3-L1 preadipocytes = experiment: Adipogenic differentiation of 3T3-L1 preadipocytes (Oil red O, triglyceride content); format: cell-based, mouse
Description: (§1) 3T3-L1 preadipocytes were grown to confluency in DMEM containing 10% CS. At 2 days post-confluency, the cells were stimulated with differentiation medium (DMEM containing 10% FBS, 10 μg/mL insulin, 1 μM dexamethasone, and 0.5 mM IBMX) for 48 h. Then, the cells were exposed in post-differentiation-maintaining medium (DMEM containing 10% FBS and 10 μg/mL insulin) for a further 48 h, which was replaced with expansion medium (DMEM containing 10% FBS) every 2 days after then. Compounds were added to the post-differentiation and expansion medium. At day 4, the cells were harvested for RNA preparation. At Day 8, the cells were fixed with 10% formaldehyde and stained with Oil red O solution. After washing with water, photos were taken. Solubilized dye was quantified at 550 nm. In addition, total triglyceride of the cells was measured by a total TG measurement kit (Applygene, China). Experiments were performed at least three times.

[1] = tested on: osteoblast marker genes in MC3T3-E1 cells; parameters: method as in PMID 21892191; settings: rosiglitazone 10 μM; cited from earlier work
[2] = tested on: PPARγ target genes in differentiating 3T3-L1 cells; experiment: Expression of adipogenesis-related and PPARγ-responsive genes in differentiating 3T3-L1 adipocytes (qPCR); format: cell-based, mouse
Description: as §1
(§2) Total RNA was extracted using TRIzol reagent (Invitrogen). First-strand cDNA was synthesized from the total RNA using a reverse transcriptional kit (TransGen). Quantitative PCR with SYBR Green (Roche Diagnostics, Lewes, UK) was performed on a Stratagene MX3000P real-time PCR system (Agilent). Melting curves were obtained, and the specificity of PCR products was checked on agarose gels. Relative mRNA expression was determined by the ΔΔCt method and normalized to GAPDH mRNA levels.

PPARγ LBD mutants = format: cell-based, human; settings: compared with wild-type PPARγ LBD
Description: All chemicals were purchased from Sigma-Aldrich (St. Louis, MO, USA). All medium and serum were obtained from Gibco (Invitrogen). […] Mutations in pBIND-PPARγ-LBD were created by site-directed mutagenesis using the Fast Mutagenesis System (TransGen Biotech, Beijing, China).
The determination of nuclear receptor activation was performed as previously. Briefly, HEK293T cells were transfected with GAL4-pGL4-luc reporter plasmid and pBIND-PPARγ-LBD expression plasmid using Lipofectamine 2000 (Invitrogen) for 6 h before treatment with compounds for 20–24 h. Activity was determined by the Luciferase Assay System (Promega).

[3] = tested on: osteoblast marker genes in MC3T3-E1 cells; experiment: Expression of osteoblast marker genes in MC3T3-E1 cells (qPCR); format: cell-based
Description: (§3) MC3T3-E1 cells were cultured in α-MEM to confluency in 24-well plates and then cultured in differentiation medium (α-MEM supplemented with 200 μM ascorbic acid and 10 mM β-glycerophosphate) for 7, 14, and 21 days, which was replaced every 3 days. The cells were treated with DMSO, rosiglitazone, or F12016 at the start of differentiation. At day 8, 15 and 22, total RNA was isolated, and real-time PCR was performed as described below.
as §2

MC3T3-E1 preosteoblasts = experiment: Osteoblastic differentiation of MC3T3-E1 cells (Alizarin red S, Alp activity); format: cell-based; settings: F12016 1, 10, 30 μM
Description: as §3
Mature osteoblasts were stained with Alizarin red S and Alp activity were measured at day 22. In brief, cells were fixed with 75% ethanol and stained with 40 mM Alizarin red S solution (pH 4.1–4.3) for 10 min. For Alp assay, the cells were harvested and sonicated on ice with two 30s-pulses. Supernatant of lysate was incubated with isopyknic 1.0 mg/ml pNPP (Sigma–aldrich) solution (1 M diethanolamine buffer, 0.5 mM magnesium chloride) for 30 min at 37°C. The reaction was measured at 405 nm. Relative ALP activity was normalized to the protein concentration.

diabetic KKAy mice = experiment: Diabetic KKAy mice, 21 days treatment (fasting blood glucose, OGTT, ITT, body weight); settings: after 21 days, F12016 75 mg/kg, rosiglitazone 5 mg/kg
Description: Fasting blood glucose was measured with Onetoch Ultra Teststrip (Johnson & Johnson) at day 0, 3, 7, 14, 21, and body weight were monitored during these days.
After 14 days of treatment, oral glucose tolerance test (OGTT) was performed. Mice were fasted for 6 h with free access to water. 2 g/kg of glucose was given by gavage and blood glucose was measured at 0, 30, 60, 90, and 120 min.
After 21 days of feeding, insulin tolerance test (ITT) was carried out. Mice were fasted for 4 h before being injected 1 U/kg of recombinant human insulin (Novo Nordisk) subcutaneously, and blood glucose was measured at 0, 40, 90, and 120 min after insulin injection.

SMILES	effect of co-incubation on rosiglitazone-induced adipogenesis (3T3-L1 preadipocytes; GW9662 20 μM plus RGZ 10 μM)	expression of RANKL in differentiated MC3T3-E1 cells [1]	mRNA levels of 11β-HSD1 [2]	expression of fatty acid synthase (Fasn) ([2]; both compounds to a similar extent)	activation of S289A, H323A, H449A and Y473A mutants (PPARγ LBD mutants)	expression of Alp and Col1 ([3]; 7 days)	expression of RANKL ([3]; 7 days, rosiglitazone 1 μM, compared with control)	expression of Ibsp and Bglap ([3]; Ibsp 14 days, Bglap 21 days)	alkaline phosphatase (Alp) activity (MC3T3-E1 preosteoblasts)	mineralization (Alizarin Red S) (MC3T3-E1 preosteoblasts)	intracellular triglyceride (TG) content (3T3-L1 preadipocytes; 6 days of stimulation)	lipid accumulation / intracellular lipid droplets (Oil red O staining) (3T3-L1 preadipocytes; RGZ 0.1, 1, 10 μM, F12016 1, 10, 30 μM)	blood glucose after insulin injection (ITT) (diabetic KKAy mice; insulin 1 IU/kg)	average body weight (diabetic KKAy mice; vs vehicle)
O=C(Nc1ccccc1)c1cc([N+](=O)[O-])ccc1Cl [GW9662, reference compound]	weakened	–	–	–	–	–	–	–	–	–	–	–	–	–
CN(CCOc1ccc(CC2SC(=O)NC2=O)cc1)c1ccccn1 (centres unmarked) [rosiglitazone, reference compound]	–	reduced expression of RANKL	similarly decreased the mRNA levels	upregulated expression	nearly abolished	reduced expressions	not significantly changed	reduced expressions	significantly reduced alkaline phosphatase (Alp) activity	impaired calcification of bone cells	significant increase	significant increase in Oil red O staining	significantly reduced blood glucose	showed weight gain in a certain extent
